# In publication PMC6968640, “Development of potent reversible selective inhibitors of butyrylcholinesterase as fluorescent probes” (Journal of Enzyme Inhibition and Medicinal Chemistry, 2020):
# “And” between values parts separate entries of the source, which are not always exact repeats. Equal values may be shown once. “Also recorded” adds a separate entry of the source. Read-outs that look alike come from different tables or passages of the source.
# Key:
# hBChE [1] = biological target: T1, hBChE (Homo sapiens, UniProt P06276); experiment: Inhibition of huBChE, method of Ellman; type: biochemical; details: for IC50: 500 µM butyrylthiocholine iodide, 1 nM enzyme, pH 8.0, room temperature; for remaining activity at 100 µM: compound at 100 µM, read-out: huBChE residual activity (RA)
# Procedure: (§1) The inhibitory potencies of these probes against cholinesterases (i.e. huAChE, murine AChE [mAChE] and huBChE) were determined using the method of Ellman[18], as previously described. The assays were carried out at room temperature in 100 mM phosphate buffer, pH 8.0, containing 333 µM Ellman reagent (5,5′-dithiobis(2-nitrobenzoic acid); DTNB), 500 µM substrate (huAChE/mAChE: acetylthiocholine; huBChE: butyrylthiocholine iodide [BSCh]) and huAChE/mAChE or huBChE (50 pM, 1 nM, respectively). […] Formation of the yellow product was followed for 1 min as the change in the absorbance at 412 nm, using a microplate reader (Synerg H4; BioTek Instruments, Inc., USA). For screening for inhibitory activities, the compounds were assayed at 100 µM, in triplicate. The initial velocities in the absence (v0) and presence (vi) of the test compounds were calculated. […].
# (§2) For the IC50 measurements, serial dilutions were prepared for the compounds with RAs <50% at 100 µM. The IC50 values were calculated by plotting the RAs against the compound concentration according to a four-parameter logistic function, using the GraphPad Prism 8 software (GraphPad Software, USA). All of the measurements were repeated twice, each of which was in triplicate.
# mAChE = mAChE (Mus musculus, UniProt P21836); experiment: Inhibition of mAChE, method of Ellman; type: biochemical; details: compound at 100 µM; read-out: mAChE residual activity (RA)
# Procedure: as §1, §2
# huAChE = huAChE (Homo sapiens, UniProt P22303); experiment: Inhibition of huAChE, method of Ellman; type: biochemical; details: compound at 100 µM; read-out: huAChE residual activity (RA)
# Procedure: as §1, §2
# purified huBChE = biological target: T2, purified huBChE (Homo sapiens, UniProt P06276); experiment: Kinetic studies: progress curves of BSCh hydrolysis by purified huBChE; type: biochemical; details: 25 °C, 25 mM phosphate buffer pH 7.0, about 50 µM BSCh
# T2 construct: gift from Drs; O. Lockridge and L. Schopfer
# Procedure: Purified huBChE was a generous gift from Drs. O. Lockridge and L. Schopfer. DTNB and BSCh were from Sigma. All other reagents used were of analytical grade. The experiments were carried out at 25 °C in 25 mM phosphate buffer, pH 7.0.
# Three compounds (2C, 3A, 3B) were tested by measuring the progress curves for BSCh hydrolysis by huBChE in the absence and presence of each of these compounds at five to seven concentrations. Assays were carried out over 10 min, in a 0.6-ml cuvette, using the method of Ellman et al[18]. The compound concentrations used were: 2C, 0–1 µM; 3A, 0–200 µM; and 3B, 0–50 nM.
# The concentration of purified huBChE, which was always the final addition to these assays, was ∼0.5 nM. The hydrolysis of 50 µM BSCh was followed until completion (in most cases), in the presence of 1 mM DTNB. Reaching the plateau was important to get a precise estimate of the actual added BSCh concentration. For the calculation, the molar absorption coefficient of […] was used. All of the measurements were performed using a conventional UV/Vis spectrophotometer (Lambda45; Perkin-Elmer). Due to the experimental manipulation, a dead time of 10 s was added to each measurement, and all progress curves were extrapolated accordingly prior to the analysis.
# . This programme is designed to generate differential equations from drawn reaction schemes and subsequently to fit the coefficients of these equations according to least squares methodology to reproduce the experimental data using a numerical integration algorithm. For determination of the kinetics mechanisms and parameters, the van Slyke-Cullen single intermediate reaction scheme[23] for substrate hydrolysis by huBChE was combined with a reversible mixed inhibition mechanism (Figure 1). […]
# Figure 1. Reaction scheme for the inhibition of BSCh hydrolysis by purified huBChE in the presence of DTNB by compounds 2C, 3A, and 3B. E, free enzyme; EA, acylated intermediate; S, substrate BSCh; P, all of the stoichiometrically released products (SCh-TNB, TNB^–); and I, compounds (inhibitors) 2C, 3A, and 3B. The symbols for the constants are: kcat (k1), catalytic constant for BSCh turnover; Km (k0), Michaelis constant; Kp = k3/k2, inhibition constant for binding of the product thiocholine-TNB; K1 = k5/k4 and K2 = k7/k6, dissociation constants for binding of the compounds to the free and acylated enzyme, respectively.
# [2] = Solubility in aqueous buffers; type: physicochemical
# BChE in rat brain slices = biological target: T3, BChE in rat brain slices (Rattus norvegicus, UniProt Q9JKC1); details: rat brain cryosections, AChE blocked with 0.1 mM BW-284C51
# T3 construct: coronal cryosections (10 μm) of a rat brain; from tissue; host or cells: rat brain coronal cryosections at the level of the thalamus
# Procedure: Sections of rat brain with the highest BChE activity were selected and the modified Koelle − Karnovsky histochemical method was used to detect BChE activity[16]^,[40–42].
# Histochemical staining for BChE activity of coronal cryosections (10 μm) of a rat brain from two regions (top/bottom row) at the level of the thalamus. All sections were processed with 0.1 mM BW-284C51 in Koelle solution, to completely block AChE activity. […] The relative optical density (ROD) pseudocolor scale for staining intensity of BChE activity is on the right.
# BChE activity histochemical staining of coronal cryosections (10 μm) of a rat brain from
# two regions at the level of the thalamus. All sections were processed with 0.1 mM BW-284C51 in
# Koelle solution to completely block the AChE activity (A, B). For the inhibition experiment, the
# relative optical density (ROD) pseudocolor scale for the staining intensity of BChE activity is shown
# on the right. The photomicrographs show BChE -rich neurons in the laterodorsal thalamic nucleus
# hBChE [3] = biological target: T1, hBChE; experiment: Fluorescence emission of probes on binding to huBChE; details: probe 1 μM, huBChE 500 nM, buffer
# Description: The fluorescence properties of probes 2C and 3B were then examined when they were bound to huBChE. […] This mirrored the differences in the emission of probe 2C between the buffer solution and the organic solvents (Figure 6(B)). […]. Most probably this is due to unspecific binding to protein surface and titration study (see Supplemental material) confirms this. Future development of probe 2C should thus be orientated towards lowering the lipophilicity, which should, in turn, reduce unspecific binding.
# Figure 7. […]
# hBChE [4] = biological target: T1, hBChE; experiment: Fluorescence titration of hBChE with probe 2C; details: in duplicate, fitted to sum of hyperbolic and linear equation; read-out: binding constant from fluorescence titration
# Procedure: 4. Titration of hBChE with probe 2C
# Figure S2. The fluorescence titration data, in duplicate, were simultaneously fitted to the sum of hyperbolic and linear equation. The determined binding constant for probe 2C was 5.5 +/- 1.6 nM, remarkably similar to the inhibition constant for the binding to the free enzyme (3.3 nM, see Table 1 in […]
# (1 picture or pasted object on this page, not shown here)
# [5] = read-out: K1, dissociation constant for binding to the free enzyme
# [6] = read-out: K2, dissociation constant for binding to the acylated enzyme
# mAChE, sequence (P21836 32-614): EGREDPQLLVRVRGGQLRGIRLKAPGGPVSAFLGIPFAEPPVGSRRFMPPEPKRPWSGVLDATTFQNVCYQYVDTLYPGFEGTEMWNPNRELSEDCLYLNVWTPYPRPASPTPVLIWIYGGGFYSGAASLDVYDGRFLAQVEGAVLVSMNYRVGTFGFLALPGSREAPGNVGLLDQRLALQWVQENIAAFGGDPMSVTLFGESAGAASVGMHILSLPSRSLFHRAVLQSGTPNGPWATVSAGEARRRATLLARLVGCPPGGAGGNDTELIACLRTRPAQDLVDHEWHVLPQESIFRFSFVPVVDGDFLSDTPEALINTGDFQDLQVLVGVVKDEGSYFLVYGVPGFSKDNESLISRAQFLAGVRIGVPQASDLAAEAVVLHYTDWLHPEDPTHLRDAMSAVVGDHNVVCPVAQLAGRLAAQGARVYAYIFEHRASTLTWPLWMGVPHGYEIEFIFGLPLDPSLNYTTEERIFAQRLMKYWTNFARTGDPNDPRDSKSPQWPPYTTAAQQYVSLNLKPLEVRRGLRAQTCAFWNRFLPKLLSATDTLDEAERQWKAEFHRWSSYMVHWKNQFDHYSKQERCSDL
# T2 sequence (P06276 29-602): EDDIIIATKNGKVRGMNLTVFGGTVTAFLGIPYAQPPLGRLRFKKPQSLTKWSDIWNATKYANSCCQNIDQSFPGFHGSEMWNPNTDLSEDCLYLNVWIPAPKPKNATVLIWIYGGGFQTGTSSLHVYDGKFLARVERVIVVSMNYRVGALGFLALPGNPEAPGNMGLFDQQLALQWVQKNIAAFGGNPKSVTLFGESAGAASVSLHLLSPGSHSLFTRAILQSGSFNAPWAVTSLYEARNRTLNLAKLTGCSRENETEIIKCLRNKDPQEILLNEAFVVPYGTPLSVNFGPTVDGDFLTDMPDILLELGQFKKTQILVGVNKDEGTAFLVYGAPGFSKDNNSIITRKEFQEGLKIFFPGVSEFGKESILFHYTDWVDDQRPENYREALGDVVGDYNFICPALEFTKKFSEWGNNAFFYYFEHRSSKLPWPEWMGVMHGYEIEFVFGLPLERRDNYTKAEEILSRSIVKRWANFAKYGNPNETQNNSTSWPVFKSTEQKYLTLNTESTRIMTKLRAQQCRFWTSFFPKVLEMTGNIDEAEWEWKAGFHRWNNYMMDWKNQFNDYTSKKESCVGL
# T1 sequence (P06276 29-602): as above
# huAChE, sequence (P22303 32-614): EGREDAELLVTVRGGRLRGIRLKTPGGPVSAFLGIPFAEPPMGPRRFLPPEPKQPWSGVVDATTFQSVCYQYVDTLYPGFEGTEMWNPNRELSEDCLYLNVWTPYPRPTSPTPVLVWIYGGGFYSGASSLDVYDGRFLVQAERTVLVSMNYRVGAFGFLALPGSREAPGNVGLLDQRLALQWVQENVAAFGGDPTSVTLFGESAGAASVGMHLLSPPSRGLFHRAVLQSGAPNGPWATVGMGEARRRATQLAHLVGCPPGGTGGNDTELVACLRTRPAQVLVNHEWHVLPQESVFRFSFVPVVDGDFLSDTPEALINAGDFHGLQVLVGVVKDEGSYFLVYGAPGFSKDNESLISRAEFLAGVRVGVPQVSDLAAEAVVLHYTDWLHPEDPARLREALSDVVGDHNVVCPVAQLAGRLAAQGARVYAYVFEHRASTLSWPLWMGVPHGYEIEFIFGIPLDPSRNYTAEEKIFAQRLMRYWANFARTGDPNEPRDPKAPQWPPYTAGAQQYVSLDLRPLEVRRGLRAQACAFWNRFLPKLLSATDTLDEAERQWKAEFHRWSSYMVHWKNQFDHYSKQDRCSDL
# T3 sequence (Q9JKC1 24-597): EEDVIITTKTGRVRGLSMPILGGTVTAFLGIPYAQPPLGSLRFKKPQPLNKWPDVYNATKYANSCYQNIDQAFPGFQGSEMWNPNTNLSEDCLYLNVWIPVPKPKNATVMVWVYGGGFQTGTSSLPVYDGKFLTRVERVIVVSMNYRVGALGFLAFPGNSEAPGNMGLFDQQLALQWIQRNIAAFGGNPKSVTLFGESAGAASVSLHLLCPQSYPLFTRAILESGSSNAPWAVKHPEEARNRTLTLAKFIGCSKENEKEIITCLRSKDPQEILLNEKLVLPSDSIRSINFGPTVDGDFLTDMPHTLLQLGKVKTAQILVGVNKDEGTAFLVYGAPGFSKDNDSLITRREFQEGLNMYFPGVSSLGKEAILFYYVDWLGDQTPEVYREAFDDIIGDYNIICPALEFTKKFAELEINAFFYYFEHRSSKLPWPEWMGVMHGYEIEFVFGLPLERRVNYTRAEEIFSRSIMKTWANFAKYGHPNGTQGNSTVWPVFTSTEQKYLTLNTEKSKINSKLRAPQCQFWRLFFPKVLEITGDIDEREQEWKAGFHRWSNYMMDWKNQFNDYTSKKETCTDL
SMILES,IC50 (hBChE [1]),remaining activity at 100 µM (mAChE),remaining activity at 100 µM (huAChE),Ki (purified huBChE; [5]),Ki (purified huBChE; [6]),solubility in aqueous buffers (in words) [2],concentration needed to achieve substantial inhibition of BChE (BChE in rat brain slices),enhancement of fluorescence intensity on addition of huBChE (hBChE [3]),huBChE inhibition (in words) (hBChE [1]),remaining activity at 100 µM (hBChE [1]),Kd (hBChE [4])
CCN(CC)c1ccc2cc(C(=O)NCCOCCOCCN(CC3CCCN(Cc4ccccc4)C3)S(=O)(=O)c3ccc4ccccc4c3)c(=O)oc2c1 (stereo not drawn) [3A],0.06 µM,93%,94%,0.063 ± 0.0005 µM,0.296 ± 0.002 µM,poor solubility in aqueous buffers; also recorded: low solubility,,,,,
O=[N+]([O-])c1ccc(N2CCN(CCN(CC3CCCN(Cc4ccccc4)C3)S(=O)(=O)c3ccc4ccccc4c3)CC2)c2nonc12 (stereo not drawn) [3B],0.018 µM,97%,57%,0.00463 ± 2e-05 µM,0.0966 ± 0.002 µM,improved solubility in aqueous solutions compared to 3A; also recorded: sufficient aqueous solubility,1 mM,only marginally increased,,,
CN(C)CCNC(=O)c1cc2ccc(N(C)C)cc2oc1=O [2A],,,18%,,,,,,very low and unselective inhibition of BChE,57%,
CCN(CC)c1ccc2cc(-c3nc(CN4CCCC(CN(CCN(C)C)C(=O)c5ccc6ccccc6c5)C4)cs3)c(=O)oc2c1 (stereo not drawn) [2C],0.088 µM,70%,> 74%,0.0033 µM and 0.00327 µM,0.0427 ± 0.0015 µM,sufficient aqueous solubility,1 mM,approximately two-fold,,,0.0055 ± 0.0016 µM
CN(C)c1ccc2cc(C(=O)NCC[N+](C)(C)C)c(=O)oc2c1 [2B],,,25%,,,,,,very low and unselective inhibition of BChE,54%,
O=[N+]([O-])c1ccc(N2CCN(Cc3cn(CCOCCN(CC4CCCN(Cc5ccccc5)C4)S(=O)(=O)c4ccc5ccccc5c4)nn3)CC2)c2nonc12 (stereo not drawn) [3D],0.214 µM,100%,98%,,,,,,substantial loss of inhibitory activity,,
[N-]=[N+]=NCCOCCN(CC1CCCN(Cc2ccccc2)C1)S(=O)(=O)c1ccc2ccccc2c1 (stereo not drawn) [3C],0.019 µM,94%,84%,,,,,,retained good inhibitory activity,,
CCN(CC)c1ccc2cc(C(=O)N(CCOC)CC3CCCN(Cc4ccccc4)C3)c(=O)oc2c1 (stereo not drawn) [1A],,92%,89%,,,,,,,,
